Conditions: not given

SMILES | boiling point [°C] | melting point [°C] | ready biodegradability | log10 Koc (L/kg) | log10 vapour pressure (mmHg) | log10 biodegradation half-life (days) | log10 Henry constant (atm·m³/mol) | log10 Koa
CCOC(=O)c1cccc(C(=O)OCC)c1 | 302 | 11.5 | – | – | – | – | – | –
COCCCN | 118 | – | not readily biodegradable | – | – | – | – | –
O=C1/C(=C2\Nc3ccccc3C2=O)Nc2ccccc21 | – | – | not readily biodegradable | – | – | – | – | –
C[C@]12CCC(=O)C=C1C=C[C@@H]1[C@@H]2CC[C@@]2(C)[C@H]1CC[C@@]21CCC(=O)O1 | – | 150 | – | – | – | – | – | –
CCNc1nc(Cl)nc(NC(C)C)n1 | – | 173 | not readily biodegradable | 2.24 | -6.54 | – | – | –
CCCCCC(C)CC (stereo unspecified) | 144 | -108 | – | – | 0.796 | 0.699 | – | –
NS(=O)(=O)c1ccc(N2C(=O)CC(c3ccccc3)C2=O)c(Cl)c1 (stereo unspecified) | – | 206 | – | – | – | – | – | –
COc1cc(C)ccc1O | 221 | 5.5 | – | – | – | – | -5.88 | –
C=CCc1cccc2ccccc12 | 266 | – | – | – | – | – | – | –
CC(CO)c1ccccc1 (stereo unspecified) | – | -13 | – | – | -1.72 | – | – | –
CC(F)(Cl)Cl | 32 | -104 | – | – | 2.78 | – | – | –
C=CC1CCCCC1 | 128 | – | – | – | – | – | – | –
S=C(Nc1cccc2ccccc12)Nc1cccc2ccccc12 | – | 208 | – | – | – | – | – | –
CCCCCCCCCCCCCCCCCCCC(=O)O | 328 | 75.4 | – | – | -8.74 | – | – | –
CCCCCCCC(=O)OC(=O)CCCCCCC | 282 | -1 | – | – | – | – | – | –
CC(Oc1ccc(Oc2ncc(C(F)(F)F)cc2Cl)cc1)C(=O)O (stereo unspecified) | – | 108 | – | – | – | – | – | –
FC(F)=C(F)I | 30 | – | – | – | – | – | – | –
O=C(C(=O)c1ccccc1)c1ccccc1 | 347 | 94.8 | – | – | -3.68 | – | – | –
C[Si](C)(C)O[Si](C)(C)O[Si](C)(C)O[Si](C)(C)O[Si](C)(C)O[Si](C)(C)O[Si](C)(C)O[Si](C)(C)O[Si](C)(C)O[Si](C)(C)O[Si](C)(C)C | 323 | – | – | – | – | – | – | –
COc1ccc2[nH]c(S(=O)Cc3ncc(C)c(OC)c3C)nc2c1 (stereo unspecified) | – | 156 | – | – | – | – | – | –
CC(=O)Nc1cc(NS(=O)(=O)C(F)(F)F)c(C)cc1C | – | 184 | – | 2.3 | – | – | – | –
CCCN(CCC)C(=O)COC(=O)c1ccccc1 | – | 20 | – | – | – | – | – | –
CC[C@H]1OC(=O)[C@H](C)C(=O)[C@H](C)[C@@H](O[C@@H]2O[C@H](C)C[C@H](N(C)C)[C@H]2O)[C@@H](C)C[C@@H](C)C(=O)C=C[C@]1(C)O | – | 170 | – | – | – | – | – | –
CC(=O)[C@H]1CC[C@H]2[C@@H]3C=CC4=CC(=O)CC[C@@]4(C)[C@@H]3CC[C@]12C | – | 170 | – | – | – | – | – | –
Cc1cccc(C)c1NC(=O)C1CCCCN1C (stereo unspecified) | – | 150 | – | – | – | – | – | –

SMILES | boiling point [°C] | melting point [°C] | ready biodegradability | log10 Koc (L/kg) | log10 vapour pressure (mmHg) | log10 biodegradation half-life (days) | log10 Henry constant (atm·m³/mol) | log10 Koa
CCOCCC(OCC)OCC | 185 | 53 | – | – | – | – | – | –
O=C(O)c1ccc([N+](=O)[O-])cc1[N+](=O)[O-] | – | 182 | – | – | – | – | – | –
COC(=O)CCCCC(=O)OC | – | 10.3 | – | – | -1.22 | – | – | –
O=[N+]([O-])c1ccccc1-c1ccccc1[N+](=O)[O-] | 305 | 126 | – | – | – | – | – | –
CCCN(CCC)S(=O)(=O)c1ccc(C(=O)O)cc1 | – | 195 | – | – | – | – | – | –
CC(=O)OC1CCCCC1C(C)(C)C (stereo unspecified) | – | 35 | – | – | – | – | – | –
CC[N+](C)(C)C(C)CC(c1ccccc1)c1ccccc1.[Br-] (stereo unspecified) | – | 204 | – | – | – | – | – | –
Oc1ccccc1O | 246 | 105 | readily biodegradable | – | -2.44 | – | – | –
Clc1cccc(-c2cc(Cl)ccc2Cl)c1 | – | – | – | – | – | – | -3.7 | –
CCC(C)(C)S | 99.1 | – | – | – | 1.68 | – | – | –
CC(C)(N=C(O)C(Br)C(C)(C)C)c1ccccc1 (stereo unspecified) | – | 180 | – | – | – | – | – | –
CCCC(Cl)CC (stereo unspecified) | 123 | – | – | – | – | – | – | –
C=CC=O | 52.6 | -87.7 | not readily biodegradable | – | 2.44 | – | -3.91 | –
O=C(O)C=Cc1ccccc1F | – | 179 | – | – | – | – | – | –
CCCCCCCCCCCC(=O)Cl | – | -17 | – | – | – | – | – | –
CCOC(=O)c1ccc([N+](=O)[O-])cc1 | 186 | 57 | – | 2.48 | – | – | – | –
CCC1(c2ccccc2)C(=O)NCNC1=O | – | 282 | – | – | – | – | – | –
FC(F)(Br)Br | 25 | -110 | – | – | 2.91 | – | – | –
NC(=O)C1(N2C(=O)c3cccc(Cl)c3C2=O)CCCCC1 | – | 194 | – | – | – | – | – | –
Clc1cc2c(Cl)c(Cl)c(Cl)c(Cl)c2c(Cl)c1Cl | – | – | – | – | -7.07 | – | – | –
CCOC(C)(C)OCC | 114 | – | – | – | – | – | – | –
Clc1cc2c(oc3c(Cl)c(Cl)c(Cl)cc32)c(Cl)c1Cl | – | 240 | – | – | – | – | – | 10.9
CCc1cccc(O)c1 | 218 | -4 | readily biodegradable | – | -1.3 | – | -6.2 | –
CCCCC(C)CC (stereo unspecified) | 118 | -100 | – | – | 1.29 | 0.477 | – | –
CC(C)=C1CCC(C)CC1 (stereo unspecified) | 173 | – | – | – | – | – | – | –

SMILES | boiling point [°C] | melting point [°C] | ready biodegradability | log10 Koc (L/kg) | log10 vapour pressure (mmHg) | log10 biodegradation half-life (days) | log10 Henry constant (atm·m³/mol) | log10 Koa
CCCC#N | 118 | -112 | – | – | 1.29 | – | -4.28 | 3.12
O=c1c(O)c(-c2ccc(O)c(O)c2)oc2cc(O[C@@H]3O[C@H](CO)[C@@H](O)[C@H](O)[C@H]3O)cc(O)c12 | – | 248 | – | – | – | – | – | –
CCCC1CCNCC1 | 173 | – | – | – | – | – | – | –
O=C(Cl)C1CCCCC1 | 180 | – | – | – | – | – | – | –
NCCc1ccc(O)c(O)c1 | – | 128 | – | – | – | – | – | –
CCC(C)CCCC(C)C (stereo unspecified) | 160 | – | – | – | 0.469 | – | – | –
Oc1cccc2cccnc12 | 267 | 75.5 | not readily biodegradable | – | -2.78 | – | – | –
ClCCCCCCCl | 204 | – | – | – | – | – | – | –
COC(F)(F)C(F)(F)F | – | – | – | – | 3.21 | – | – | –
CCN(CC)C(=O)CC(C)C | 211 | – | – | – | – | – | – | –
CCCCCCF | 91.5 | -103 | – | – | 1.76 | – | – | –
ClC(Cl)=C(Cl)C(Cl)=C(Cl)Cl | 215 | -21 | not readily biodegradable | – | -0.658 | – | -1.99 | –
CCCCSSCCCC | – | – | – | – | -1.2 | – | – | –
O=C1C2(Cl)C3(Cl)C4(Cl)C(Cl)(Cl)C5(Cl)C3(Cl)C1(Cl)C5(Cl)C24Cl (stereo unspecified) | – | – | – | 4.2 | -6.65 | – | – | –
CP(C)C | 37.5 | -85 | – | – | – | – | – | –
NCc1ccccc1Sc1ccccc1CO | – | 97 | – | – | – | – | – | –
Cc1cc(Cl)ccc1N=CN(C)C | – | 35 | – | 2.91 | -3.03 | – | – | –
FC(Cl)(Cl)CCl | 88 | -140 | – | – | – | – | – | –
CCNC(N)=S | – | 112 | – | – | – | – | – | –
CC(Br)CCCBr (stereo unspecified) | – | -34.4 | – | – | – | – | – | –
O=[N+]([O-])c1cccc(F)c1 | 199 | 41 | – | – | – | – | – | –
CC(C)(N)C(=O)O | – | 335 | – | – | – | – | – | –
Oc1cc(O)c2c(c1)O[C@H](c1ccc(O)c(O)c1)[C@@H](O)C2 | – | – | – | 2.03 | – | – | – | –
ClC=C(Cl)C(Cl)Cl | 162 | – | – | – | – | – | – | –
NCc1cccc(CN)c1 | 247 | – | not readily biodegradable | – | – | – | – | –

SMILES | boiling point [°C] | melting point [°C] | ready biodegradability | log10 Koc (L/kg) | log10 vapour pressure (mmHg) | log10 biodegradation half-life (days) | log10 Henry constant (atm·m³/mol) | log10 Koa
O[C@H]1[C@H](O)[C@H](O)OC[C@H]1O | – | 158 | – | – | – | – | – | –
N#CC1CC2CCC1C2 (stereo unspecified) | – | 44 | – | – | – | – | – | –
Cc1ccc([N+](=O)[O-])cc1C | 251 | 30.5 | – | – | -2.44 | – | – | –
CC[N+](C)(CC)CCOC(=O)C(O)(c1cccs1)C1CCCC1.[Br-] (stereo unspecified) | – | 125 | – | – | – | – | – | –
ClCCC(Cl)(Cl)Cl | 157 | – | – | – | – | – | – | –
Clc1cc2c(c(Cl)c1Cl)Oc1cc(Cl)c(Cl)c(Cl)c1O2 | – | 285 | – | – | -10.4 | – | – | 11
C#C[C@]1(O)CC[C@H]2[C@@H]3[C@H](C)CC4=C(CCC(=O)C4)[C@H]3CC[C@@]21C | – | 167 | – | – | – | – | – | –
CC(c1ccccc1)C1CCCCC1 (stereo unspecified) | 265 | – | – | – | – | – | – | –
O=C(NN=Cc1ccc([N+](=O)[O-])o1)c1ccc(O)cc1 | – | 298 | – | – | – | – | – | –
Sc1c(Cl)c(Cl)c(Cl)c(Cl)c1Cl | – | 232 | – | – | – | – | – | –
CCCCCCCC(=O)OC | 193 | -40 | not readily biodegradable | – | -0.267 | – | -3.11 | –
COc1ccc(O)cc1 | 243 | 57 | readily biodegradable | – | – | – | – | –
COP(=S)(OC)Oc1ccc([N+](=O)[O-])c(C)c1 | – | 3.4 | readily biodegradable | 2.63 | -4.27 | – | -6.03 | –
Cc1nccnc1C | 156 | – | – | – | – | – | – | –
NCCS(=O)(=O)O | – | 328 | – | – | – | – | – | –
CCOC=C(C#N)C#N | – | 66 | – | – | – | – | – | –
CCC(CC)CC | 93.5 | -119 | – | – | 1.76 | 0.602 | – | –
O=C(c1ccccc1)C(Cl)Cl | 249 | 20.5 | – | – | – | – | – | –
CC(C)(C)CC(=O)O | 190 | 6.5 | – | – | – | – | – | –
Cc1cnc(C)c(C)n1 | 172 | – | – | – | – | – | – | –
CCCCCCCCCCCCS | 274 | -8 | – | – | -2.07 | – | – | –
c1ccc([Se][Se]c2ccccc2)cc1 | – | 63.5 | – | – | – | – | – | –
CCO[SiH](OCC)OCC | 134 | – | – | – | – | – | – | –

Same assay, conditions: fish

SMILES | log10 BCF | log10 biotransformation half-life (days)
CCNc1nc(Cl)nc(NC(C)C)n1 | 0.9 | -1.05
Clc1ccc(-c2c(Cl)ccc(Cl)c2Cl)c(Cl)c1 | – | 2.61
Clc1cc2c(oc3c(Cl)c(Cl)c(Cl)cc32)c(Cl)c1Cl | 3.98 | 1.12
CCC(C)CCCC(C)C (stereo unspecified) | – | 0.61
ClC(Cl)=C(Cl)C(Cl)=C(Cl)Cl | 3.82 | 2.07
O=C1C2(Cl)C3(Cl)C4(Cl)C(Cl)(Cl)C5(Cl)C3(Cl)C1(Cl)C5(Cl)C24Cl (stereo unspecified) | 3.19 | –
NCc1cccc(CN)c1 | 0.43 | –
Clc1cc2c(c(Cl)c1Cl)Oc1cc(Cl)c(Cl)c(Cl)c1O2 | 3.93 | 1.21
COP(=S)(OC)Oc1ccc([N+](=O)[O-])c(C)c1 | 1.95 | 0.03

Source: the OPERA property sets (Mansouri et al. 2018)
